Reference: US8247352B2, “Method of inhibiting ethylene production in plants” (The Regents of the University of California, priority 2005, dated 2012)
“And” between values parts separate entries of the source, which are not always exact repeats. Identical values can stand only once.

What was measured:
ACC Oxidase (ACCO, ACO1) = molecular target: T1, ACC Oxidase (ACCO, ACO1) (Solanum lycopersicum, UniProt P05116); assay: Initial velocity assays (rate of oxygen consumption) with ACC or substrate analogs; type: biochemical, Lycopersicon esculentum; settings: for Km increased by factor compared with ACC / Rate of O2 consumption by ACCO compared with ACC (in words) / Km compared to ACC (in words): from Table 1; for Km / Vmax: O2 consumption, 25° C., pH 7.2, [Ascorbate] = 30 mM, [O2] = 258 μM, [CO2/bicarbonate] = 20 mM
T1 construct: made in house; host or cells: Escherichia coli BL21 (DE3)pLysS
Protocol: ACCO from Lycopersicon esculentum (ACO1) was produced in Escherichia coli strain BL21 (DE3)pLysS and purified by a two-column purification procedure as previously described (Thrower, J. S. et al., 2001).
Initial velocities were measured by the rate of oxygen consumption at 25° C., pH 7.2, using a YSI model 5300 biological oxygen monitor as previously described (Thrower 2001) with minor modifications. Standard reaction mixture (1 ml) contained 100 mM MOPS, pH 7.2, 20 mM NaHCO3, 100 mM NaCl, 20 mM sodium ascorbate, 0.1 mg/ml BSA, and ACC or substrate analog at various concentrations. Oxygen concentrations were kept at atmospheric concentration and determined using the oxygen monitor that was calibrated with air saturated water (258 μM oxygen at 25° C.). Reactions were initiated with 2 μL ACCO reconstituted with equimolar Fe(NH4)2(SO4)2. Data from initial velocity experiments with varying substrate concentrations were fitted to the Michaelis-Menton equation using the program Kalideograph.
Either cyclic substrate analogs (including inhibitor Me-ACC, ACC-NH2, or ACC-OMe) or acyclic substrate analogs (AIB, D-Ala, or Gly) were used. […] Ascorbate and oxygen concentrations were kept constant at 30 mM and ˜258 μM, respectively.

ACC Oxidase = molecular target: T2, ACC Oxidase (Solanum lycopersicum, UniProt P05116); assay: Stoichiometry of O2 consumed to product formed (CO2 or ethylene), extent of uncoupling; type: biochemical, Lycopersicon esculentum; settings: for Ratio O2 consumed to product formed, O2:CO2 / Ratio O2 consumed to product formed, O2:ethylene: saturating substrate, 30 mM ascorbate, ambient O2; for Ratio O2 consumed to product formed, O2:CO2: [14C]-CO2 trapping; for Ratio O2 consumed to product formed, O2:ethylene: ethylene by GC-FID
T2 construct: made in house; host or cells: Escherichia coli BL21 (DE3)pLysS
Protocol: Oxygen consumption was measured using a YSI model 5300 biological oxygen monitor as described above. Reactions contained D-[1-^14C]-Ala, [carboxyl-^14C]-ACC, α-[1-^14C]-AIB, or [1-^14C]-Gly in trace amounts. […] Reactions (1 mL) were initiated with a pre-incubated mixture of ACCO:Fe(II) in a 2:1 ratio. This was done to minimize free Fe(II) in solution. Final concentrations were typically 10 μM ACCO and 5 μM Fe(II). Reactions were quenched by addition of 3 μL of 0.1 M 3-[2-Pyridyl]-5,6-diphenyl-1,2,4-triazine-4,4′-disulfonic acid (FERROZINE®) and the O2 consumption rate was allowed to stabilize. The reaction (0.8 mL) was removed with a gas-tight syringe and injected into a small vial containing 0.1 mL 10% HCl that was inside a larger vial containing the CO2 trap (see above). The acidified reaction mixture and the CO2 trap were stirred for 2 h, and radioactivity from [^14C]—CO2 was determined as described above. Controls measuring the efficiency of the CO2 trap were done by injecting a known amount of [^14C]—NaHCO3 into the vial containing acid, as above, and measuring the amount of [^14C]—CO2 recovered. Efficiency of trapping was routinely ˜98%.
O2 consumption was measured using an Ocean Optics FOXY fiber optic oxygen sensor, with the fiber optic probe inserted through a syringe into an airtight septum, thus preventing ethylene escape. […] ACCO:Fe(II) (final concentrations 10 μM ACCO and 5 μM Fe(II)) was injected by syringe into a ½ dram vial covered with a septum with no headspace. The reaction was quenched as described above. A 10 mL syringe filled with air was used to transfer the reaction mixture to a 10 mL test tube covered with a septum using a cannula. The test tube was stirred vigorously for at least 4 hours before ethylene analysis. Ethylene was measured by injecting 2 mL of the headspace onto a GC equipped with a RT-Alumina GC column (final sample size was 250 μL). Ethylene was separated using ultrapure helium (grade 5) as the carrier gas at 40° C. detected by flame ionization (FID). The data were collected and the peak area was determined. Calibration for ethylene was done with Scotty IV mix 3 hydrocarbon standard (Scotty Specialty Gases). The ppm of ethylene was converted to nanomoles of ethylene per unit volume using the ideal gas law. Dilution of ethylene during sampling was taken into account in the calculations.
The extent of uncoupling for ACCO with both cyclic and acyclic substrate analogs was determined by comparing the amount of O2 consumed and product, either ethylene or CO2, formed. All reactions were carried out at saturating substrate and ascorbate concentrations to minimize potential O2 reaction in the absence of substrate. […] O2 measurements were quenched during or just as the linear phase of the reaction began to fall off due to either loss of Fe(II) from the enzyme or possible enzyme inactivation. The results distinguish between amounts of uncoupling.
For cyclic substrate analogs and ACC, the stoichiometry was determined by comparing O2 consumption with ethylene formation by GC-FID. […] The stoichiometry of O2 consumed to ethylene produced for ACC was 1.44 and to CO2 produced was 1.18, which is identical to that reported by Dong, et. al (Dong et al., 1992).

ACCO:Fe(II) = molecular target: T3, ACCO:Fe(II) (Solanum lycopersicum, UniProt P05116); assay: Ethylene trapping assay: substrate turnover by ACCO:Fe(II), ethylene trapped as dibromoethane, GC-MS; type: biochemical, Lycopersicon esculentum; settings: for Amount of ethylene formed during the reaction time relative to reaction with ACC: 1 hr incubation with ACCO:Fe(II); for Ethylene produced relative to predicted ethylene during the reaction time course: prediction from kcat
T3 construct: made in house; host or cells: Escherichia coli BL21 (DE3)pLysS
Protocol: For detection of CO2, trace radiolabeled compound was used as appropriate. A small vial containing the reaction mixture minus enzyme was placed along side of another small vial containing the ethylene or CO2 trap. Both vials were placed in a large vial, which was capped with a septum. ACCO:Fe(II) was introduced into the reaction vial with a syringe and both the reaction vial and trap vial were stirred for 1 h. For [^14C]—CO2 trapping, a 1 mL solution of freshly prepared 10 M NaOH was used as the trapping agent. At the end of the reaction, the trap was removed and added to 15 mL scintillation fluid (Hionic-Fluor, Perkin Elmer) and radioactivity determined by scintillation counting. For ethylene, a […] solution of Br2 in CCl4 was used as the trap. A small amount of 2,5-dibromohexane was added to the trap as an internal standard. At the completion of the reaction, a small excess of 2,3-dimethyl-2-butene was added to the trap to quench unreacted Br2, and the trap was analyzed by GC-MS. Dibromoethane purchased from Aldrich was used as a standard.
The ability of ACCO to turnover ACC or the cyclic substrate analogs (MeACC, ACC-NH2, or ACC-OMe) was determined by the formation of ethylene. Each substrate analog or ACC was incubated for 1 hr with ACCO:Fe(II) in a closed reaction vial containing an ethylene trap that would convert ethylene to dibromoethane. At the end of the reaction time, the ethylene trap was quenched and analyzed for dibromoethane by GC-MS. Reactions with BSA/Fe(II) were used as a control for non-enzymatic ethylene formation. The formation of ethylene was detected in the reaction vials of ACC and all the cyclic analogs in the presence of ACCO:Fe(II). No ethylene was detected in any of the BSA/Fe(II) reactions. The amount of ethylene formed during the reaction time from the cyclic analogs was lower than that from the reaction with ACC (MeACC=14%, ACCNH2=13%, ACC-OMe=79%). If the rates of O2 consumption for the reactions with the different substrates are considered, the kcat for ACC-OMe is approximately 75% of that for ACC, which would be consistent with the amount of ethylene produced during the time course of the reaction. […] Although the purity of both MeACC and ACCNH2 by elemental analysis was determined >95%, it is possible that a small amount of contaminating ACC could be responsible for the ethylene formed in these reactions. To determine whether ethylene was being formed from the substrate analog and not from contaminating ACC, reactions with each analog were done in the presence of increasing concentration of ACCO:Fe(II). In the case of a small amount of contamination where the ACC would be quickly depleted during the reaction, the result would be a non-linear dependence of ethylene production with increasing ACCO concentration.

ACCO = molecular target: T4, ACCO (Solanum lycopersicum, UniProt P05116); assay: Labeling of ACCO by radiolabeled N-Me-ACC (centrifugal filtration, scintillation counting); type: binding, Lycopersicon esculentum; settings: approximately equal concentrations, standard reaction conditions, quenched with Ferrozine
T4 construct: made in house; host or cells: Escherichia coli BL21 (DE3)pLysS
Protocol: Radiolabeled N-Me-ACC was incubated with ACCO (approximately equal concentrations) in standard reaction conditions. The reaction was quenched using Ferrozine. The solution was placed in a Millipore 10K NMWL Ultrafree®-MC Centrifugal Filter Unit and centrifuged for 15 min. at 14K rpm. The remaining protein (˜20 μL) was washed with 3×1 mL of either water, reaction buffer, or 0.1% TFA by repeated centrifugation. The protein was collected and radioactivity determined by scintillation counting in 12 mL EcoLite^+ scintillation fluid.

T1 sequence (P05116 whole entry): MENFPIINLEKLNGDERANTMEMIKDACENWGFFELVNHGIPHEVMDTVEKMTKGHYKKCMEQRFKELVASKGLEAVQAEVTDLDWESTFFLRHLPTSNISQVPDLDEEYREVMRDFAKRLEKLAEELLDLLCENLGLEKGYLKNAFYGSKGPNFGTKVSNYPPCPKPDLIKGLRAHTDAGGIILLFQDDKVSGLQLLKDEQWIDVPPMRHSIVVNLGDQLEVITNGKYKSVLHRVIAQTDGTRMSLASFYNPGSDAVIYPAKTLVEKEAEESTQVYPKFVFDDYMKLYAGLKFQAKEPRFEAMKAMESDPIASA
T3 sequence (P05116 whole entry): as above
T2 sequence (P05116 whole entry): as above
T4 sequence (P05116 whole entry): as above

Row | Structure (SMILES) | Km increased by factor compared with ACC (ACC Oxidase (ACCO, ACO1)) [fold] | Rate of O2 consumption by ACCO compared with ACC (in words) (ACC Oxidase (ACCO, ACO1)) | Products detected (ACC Oxidase) | Ratio O2 consumed to product formed, O2:CO2 (ACC Oxidase) | Km (ACC Oxidase (ACCO, ACO1)) [µM] | Vmax (ACC Oxidase (ACCO, ACO1)) [min⁻¹] | kcat as percent of that for ACC (ACC Oxidase (ACCO, ACO1); from rates of O2 consumption) | Amount of ethylene formed during the reaction time relative to reaction with ACC (ACCO:Fe(II)) [%] | Ratio O2 consumed to product formed, O2:ethylene (ACC Oxidase) | Km compared to ACC (in words) (ACC Oxidase (ACCO, ACO1)) | kcat slower than the kcat for ACC (ACC Oxidase (ACCO, ACO1); from rates of O2 consumption) [%] | Ethylene produced relative to predicted ethylene during the reaction time course (ACCO:Fe(II)) | Labeling of ACCO by radiolabeled compound (ACCO)
1 | C[C@@H](N)C(=O)O [D-Alanine, D-alanine] | 44.7 | comparable | Acetaldehyde, CO2 | 3.46 ± 0.51 | – | – | – | – | – | – | – | – | –
2 | COC(=O)C1(N)CC1 [ACC-OMe] | ~28 | – | Ethylene | – | 2760 ± 550 | 27.3 ± 1.7 | approximately 75% | 79 | 1.81 ± 0.72 | – | – | – | –
3 | NC(=O)C1(N)CC1 [ACC-NH2] | – | – | Ethylene | – | – | – | – | 13 | 4.40 ± 1.56 | not significantly altered | ~30 | about half the predicted ethylene | –
4 | NC1(C(=O)O)CC1 [ACC, 1-aminocyclopropane-1-carboxylic acid, reference compound] | – | – | Ethylene, CO2 | 1.18 and 1.2 and 1.18 ± 0.17 | – | – | – | – | 1.44 and 1.44 ± 0.22 | – | – | – | –
5 | CNC1(C(=O)O)CC1 [N-Me-ACC] | – | – | Ethylene | – | 107 ± 21 | 12.2 ± 0.5 | – | 14 | 3.17 ± 0.86 | not significantly altered | ~30 | about half the predicted ethylene | irreversibly labels ACCO in a short period of time
6 | CC(C)(N)C(=O)O [AIB, α-aminoisobutyric acid] | 9.3 | comparable | Acetone, CO2 | 1.7 and 1.68 ± 0.12 | – | – | – | – | – | – | – | – | –
7 | NCC(=O)O [Glycine, glycine] | – | – | CO2 | – | – | – | – | – | – | – | – | – | –
